In US20180148418A1, “AMIDO-SUBSTITUTED CYCLOHEXANE DERIVATIVES” (Bayer Pharma Aktiengesellschaft, priority 2015, published 2018):
Counter-ions that a name gives are not always drawn.

Tests used:
TNKS2 = biological target: T1, TNKS2 (Homo sapiens, UniProt Q9H2K2); assay: TNKS2 Assay B (auto-parsylation, [3H]-NAD+ SPA); format: biochemical; conditions: 6 nM TNKS2, auto-parsylation, over night at room temperature
T1 construct: purchased BPS Bioscience, San Diego, USA 80572 (TNKS2 Histone Ribosylation Assay Kit)
T1 sequence (Q9H2K2 1-1166): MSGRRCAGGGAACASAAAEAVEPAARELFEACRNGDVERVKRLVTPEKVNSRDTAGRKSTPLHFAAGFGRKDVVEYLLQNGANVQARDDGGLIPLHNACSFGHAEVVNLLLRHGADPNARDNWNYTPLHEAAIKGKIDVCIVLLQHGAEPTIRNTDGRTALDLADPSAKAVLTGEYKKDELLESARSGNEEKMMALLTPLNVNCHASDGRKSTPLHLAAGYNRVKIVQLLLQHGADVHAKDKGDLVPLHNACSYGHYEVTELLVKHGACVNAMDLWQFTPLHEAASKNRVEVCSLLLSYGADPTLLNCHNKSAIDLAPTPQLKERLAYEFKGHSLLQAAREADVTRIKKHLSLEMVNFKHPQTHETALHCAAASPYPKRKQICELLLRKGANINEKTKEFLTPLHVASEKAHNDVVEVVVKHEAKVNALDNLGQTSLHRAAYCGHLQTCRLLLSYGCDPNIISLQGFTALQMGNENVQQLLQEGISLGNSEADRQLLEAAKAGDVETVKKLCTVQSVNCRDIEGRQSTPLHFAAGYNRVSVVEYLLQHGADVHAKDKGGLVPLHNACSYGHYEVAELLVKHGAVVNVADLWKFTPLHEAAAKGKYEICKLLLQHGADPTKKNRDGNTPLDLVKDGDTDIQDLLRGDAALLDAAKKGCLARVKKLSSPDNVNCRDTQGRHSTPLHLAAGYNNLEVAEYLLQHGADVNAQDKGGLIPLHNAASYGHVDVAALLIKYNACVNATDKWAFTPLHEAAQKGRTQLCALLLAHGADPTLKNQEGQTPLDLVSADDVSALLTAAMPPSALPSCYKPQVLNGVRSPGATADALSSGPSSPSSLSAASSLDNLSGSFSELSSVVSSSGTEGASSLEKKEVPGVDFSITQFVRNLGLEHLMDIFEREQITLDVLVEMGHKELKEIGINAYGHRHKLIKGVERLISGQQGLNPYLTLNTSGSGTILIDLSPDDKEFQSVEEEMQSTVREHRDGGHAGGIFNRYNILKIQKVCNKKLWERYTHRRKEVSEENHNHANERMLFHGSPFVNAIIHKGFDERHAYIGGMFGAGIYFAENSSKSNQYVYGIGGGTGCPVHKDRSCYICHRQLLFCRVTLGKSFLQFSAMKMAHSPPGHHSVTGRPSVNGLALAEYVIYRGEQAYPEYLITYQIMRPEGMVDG

[1] = tested on: HEK293 cells cotransfected with the FOP control vector; assay: HEK293 FOP assay (control reporter with non-functional TCF elements); format: cell-based; conditions: Homo sapiens, 16 hours
In short: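 Compound series from 50 μM down to 15 nM, prediluted in DMSO then 50-fold into CAFTY buffer (pH 7.4, 2 mM Ca2+, 0.01% BSA), tested alongside TOP cells on a Geneticin-selected HEK293 FOP line whose TCF elements are replaced by a random sequence; recombinant human Wnt-3a applied at 2500-5 ng/ml.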

SMILES: CNC(=O)c1[nH]cnc1C(=O)NC1CCC(C(=O)Nc2ccc(F)cc2Cl)CC1C (racemic) [Example 39, N^4-{4-[(2-chloro-4-fluorophenyl)carbamoyl]-2-methylcyclohexyl}-N^5-methyl-1H-imidazole-4,5-dicarboxamide]
- IC50 (TNKS2): 100 nM

SMILES: Cc1c(C(C)N(C)C)cnc2c(C(=O)N[C@H]3CC[C@H](C(=O)Nc4ccc(F)cc4Cl)CC3)cnn12 (mixture of isomers) [Example 55, N-{trans-4-[(2-chloro-4-fluorophenyl)carbamoyl]cyclohexyl}-6-[1-(dimethylamino)ethyl]-7-methylpyrazolo[1,5-a]pyrimidine-3-carboxamide formic acid salt]
- IC50 [1]: ≥ 50000 nM
- IC50 (TNKS2): 490 nM

SMILES: O=C(NCCN1CCCCC1)c1nc[nH]c1C(=O)N[C@H]1CC[C@H](C(=O)Nc2ccc(F)cc2Cl)CC1 [Example 2, N^5-{trans-4-[(2-chloro-4-fluorophenyl)carbamoyl]cyclohexyl}-N^4-[2-(piperidin-1-yl)ethyl]-1H-imidazole-4,5-dicarboxamide]
- IC50 [1]: ≥ 50000 nM
- IC50 (TNKS2): 230 nM

SMILES: CNC(C)c1cnc2c(C(=O)N[C@H]3CC[C@H](C(=O)Nc4ccc(F)cc4Cl)CC3)cnn2c1C (stereo partly drawn) [Example 54, N-{trans-4-[(2-chloro-4-fluorophenyl)carbamoyl]cyclohexyl}-7-methyl-6-[1-(methylamino)ethyl]pyrazolo[1,5-a]pyrimidine-3-carboxamide formic acid salt]
- IC50 [1]: ≥ 50000 nM
- IC50 (TNKS2): 680 nM

SMILES: COCC(C)NC(=O)c1nc[nH]c1C(=O)N[C@H]1CC[C@H](C(=O)Nc2cc(N3CCOCC3)ccc2Cl)CC1 (stereo partly drawn) [Example 91, N^5-(trans-4-{[2-chloro-5-(morpholin-4-yl)phenyl]carbamoyl}cyclohexyl)-N^4-(1-methoxypropan-2-yl)-1H-imidazole-4,5-dicarboxamide]
- IC50 [1]: ≥ 50000 nM
- IC50 (TNKS2): 6800 nM
